Assay results: US20160031935A1, “SMALL MOLECULE MODULATORS OF PCSK9 AND METHODS OF USE THEREOF” (ADAERATA, LIMITED PARTNERSHIP, priority 2013, published 2016)

How the values were obtained:
cell surface LDLR = test: FACS assay of LDLR at the HepG2 cell surface; assay type: cell-based, human; details: 10 μM, 24 h; LDLR positive HepG2 cells
Procedure: The ability of PCSK9 inhibitory compounds to prevent the activity of PCSK9 on LDLR at the cell surface was also measured by using flow cytometry analyses as described in Benjannet S. et al. J. Biol. Chem. 285: 40965-40978, 2010. The level of LDLR at the HepG2 cell surface was measured by using anti human LDLR antibody (1:100, mAb-C7, Santa Cruz Biotechnology) and a secondary Alexa Fluor 647 donkey anti-mouse (Molecular Probes) antibody. Viable cells (PI-negative) were then analyzed by FACS for both PI and Alexa Fluor 647 using the FACS BD LSR (BD Biosciences). Cell surface LDLR was reported relative to control (untreated cells). The inhibition of the PCSK9 function in these assays was detected by an increased number of positive cells which correlated with an increased expression of LDLR at the cell surface.
More particularly, Human hepatoblastoma HepG2 cells (4×10^5 cells/well) were seeded in 12 well plates (Greiner BioOne) in complete media and cultured for 20 hours, at 37° C., followed by a 1 hour wash in serum free media at 37° C. Next, the wash media was removed and the cells were incubated overnight (24 hours) with 0.9 ml/well incubation media containing compounds at 10 uM or DMSO control (0.4% final). After one rinse with buffer A followed by another rinse with EDTA solution (2.5 mM EDTA-2Na), the cells were detached by incubation in the presence of fresh EDTA solution (1 ml) at 37° C. for 20 minutes. All the steps following cell detachment were conducted on ice or 4° C. To terminate the detachment, the cells were transferred in a 15 ml tube containing 3 ml of buffer A and centrifuged immediately for 5 minutes at 900 rpm (100 g) (4° C.). The cells were then resuspended in 500 ul buffer A together with 1:250 human LDLR antibody and incubated on ice for 10 minutes. Cells were washed once with 5 ml buffer A, centrifuged for 5 minutes, resuspended in 500 ul buffer A containing 1:500 Alexa Fluor 647 secondary antibody and incubated on ice for 5 min. After the staining, cells were washed once with 5 ml buffer A, centrifuged for 5 minutes and resuspended in 300 ul buffer A containing 1.67 ug/ml propidium iodide. A fixed number (2,000 cells) of viable cells (propidium iodide negative) were then analyzed by FACS for Alexa Fluor 647 (cell surface LDLR) using a FACS-CyAn ADP flow cytometer (Beckman Coulter (DAKO)) and Summit software (Summit Software Inc.).
Human HepG2 cell line: ATCC, HB-8065 Seeding media: complete media—EMEM (high glucose+sodium pyruvate) (Wisent)+10% FBS Wash media: serum free media—EMEM (high glucose+sodium pyruvate) (Wisent) Incubation media with compounds: EMEM (high glucose+sodium pyruvate) (Wisent)+0.07% BSA (Sigma-Aldrich) BufferA: 1×D-PBS without calcium and magnesium (Wisent 311-425-CL)+0.5% BSA (Sigma A7409-50ml)+[…] Glucose (Wisent 609-036-EL). Primary antibody: human LDLR antibody, monoclonal Mouse IgG1 clone #472413 (MAB2148, R&D Systems) Secondary antibody: Alexa Fluor® 647 goat anti-mouse IgG (H+L)*2 mg/mL*(A21235, Molecular Probes) Propidium iodide: 1 mg/ml solution (P4864, Sigma)

HepG2 cells = test: Cell viability assay (cell density during the PCSK9 secretion assay); assay type: cell-based, human; details: 33 μM
Procedure: For the cell viability assay, the cell density of HepG2 cells was measured in the presence of 33 μM of compounds or in the presence of DMSO (control) during the PCSK9 secretion assay described in Example 92. Table II below presents compounds with a low toxicity at 33.3 μM or less.

| SMILES | FACS-LDLR (% DMSO Cnt) (cell surface LDLR) | Cell viability (% DMSO Cnt) (HepG2 cells) |
| --- | --- | --- |
| CC(C)[C@H](NC(=O)c1ccc(-c2ccccc2)cc1)C(=O)N[C@@H](Cc1ccccc1)C(=O)NC1(C(=O)N[C@@H](CCC(N)=O)C(O)C(F)(F)F)CCC1 (single isomer, unassigned) [Example 66] | 122 ± 11 |  |
| CC(C)[C@H](NC(=O)c1ccc(-c2ccc(F)cc2)cc1)C(=O)N[C@@H](Cc1ccccc1)C(=O)N[C@@H](C)C(=O)NC(CCC(N)=O)C(O)C(F)(F)F (stereo partly drawn) [Example 52, N-((2S)-1-(((2S)-1-(((2S)-1-((6-Amino-1,1,1-trifluoro-2-hydroxy-6-oxohexan-3-yl)amino)-1-oxopropan-2-yl)amino)-1-oxo-3-phenylpropan-2-yl)amino)-3-methyl-1-oxobutan-2-yl)-4′-fluoro-[1,1′-biphenyl]-4-carboxamide] | 138 ± 20 |  |
| CCCCCCCCCC(=O)N[C@H](C(=O)N[C@@H](Cc1ccccc1)C(=O)N[C@@H](Cc1ccccc1)C(=O)NC(CCC(N)=O)C(O)C(F)(F)F)C(C)C (stereo partly drawn) [Example 59, N-((2S)-1-(((2S)-1-(((2S)-1-((6-Amino-1,1,1-trifluoro-2-hydroxy-6-oxohexan-3-yl)amino)-1-oxo-3-phenylpropan-2-yl)amino)-1-oxo-3-phenylpropan-2-yl)amino)-3-methyl-1-oxobutan-2-yl)decanamide] | 265 ± 35 | 83 |
| CC(C)[C@H](NC(=O)c1ccc(-c2ccccc2)cc1)C(=O)N[C@@H](Cc1ccccc1)C(=O)N[C@@H](C)C(=O)NC(CCC(N)=O)C(O)C(F)(F)F (stereo partly drawn) [Example 24, N-((2S)-1-(((2S)-1-(((2S)-1-((6-Amino-1,1,1-trifluoro-2-hydroxy-6-oxohexan-3-yl)amino)-1-oxopropan-2-yl)amino)-1-oxo-3-phenylpropan-2-yl)amino)-3-methyl-1-oxobutan-2-yl)-[1,1′-biphenyl]-4-carboxamide] | 116 ± 5 |  |
| CC(C)[C@H](NC(=O)c1ccc(-c2ccccc2)cc1)C(=O)N[C@H](Cc1ccccc1)C(=O)N[C@@H](C)C(=O)NC(CCC(N)=O)C(O)C(F)(F)F (stereo partly drawn) [Example 70, N-((2S)-1-(((2R)-1-(((2S)-1-((6-Amino-1,1,1-trifluoro-2-hydroxy-6-oxohexan-3-yl)amino)-1-oxopropan-2-yl)amino)-1-oxo-3-phenylpropan-2-yl)amino)-3-methyl-1-oxobutan-2-yl)-[1,1′-biphenyl]-4-carboxamide] | 118 ± 18 |  |
| CC(C)[C@H](NC(=O)c1ccc(C2(C(F)(F)F)N=N2)cc1)C(=O)N[C@@H](Cc1ccccc1)C(=O)N[C@@H](C)C(=O)NC(CCC(N)=O)C(O)C(F)(F)F (stereo partly drawn) [Example 29, N-((2S)-1-(((2S)-1-(((2S)-1-((6-Amino-1,1,1-trifluoro-2-hydroxy-6-oxohexan-3-yl)amino)-1-oxopropan-2-yl)amino)-1-oxo-3-phenylpropan-2-yl)amino)-3-methyl-1-oxobutan-2-yl)-4-(3-(trifluoromethyl)-3H-diazirin-3-yl)benzamide] | 233 ± 50 | 88 |
| CSCC[C@H](NC(=O)c1ccc(-c2ccccc2)cc1)C(=O)N[C@@H](Cc1ccccc1)C(=O)N[C@@H](C)C(=O)NC(CCC(N)=O)C(O)C(F)(F)F (stereo partly drawn) [Example 75, N-((5S,8S,11S)-17-amino-8-benzyl-11-methyl-6,9,12,17-tetraoxo-14-(2,2,2-trifluoro-1-hydroxyethyl)-2-thia-7,10,13-triazaheptadecan-5-yl)-[1,1′-biphenyl]-4-carboxamide] | 174 ± 41 |  |
| CCCCCCCCCC(=O)N[C@H](C(=O)N[C@@H](Cc1ccccc1)C(=O)N[C@H](C)C(=O)N[C@@H](CCC(N)=O)C(O)C(F)(F)F)C(C)C (single isomer, unassigned) [Example 60] | 138 ± 8 | 80 |
| CCCCCCCCCC(=O)N[C@H](C(=O)N[C@@H](Cc1ccccc1)C(=O)N[C@H](C(=O)NC(CCC(N)=O)C(O)C(F)(F)F)C(C)C)C(C)C (stereo partly drawn) [Example 58, N-((2S)-1-(((2S)-1-(((2S)-1-((6-amino-1,1,1-trifluoro-2-hydroxy-6-oxohexan-3-yl)amino)-3-methyl-1-oxobutan-2-yl)amino)-1-oxo-3-phenylpropan-2-yl)amino)-3-methyl-1-oxobutan-2-yl)decanamide] | 166 ± 28 | 93 |
